Test results published in patent US20070142395A1, “Treatment of sexual dysfunction with 1-[3-[4-(3-chlorophenyl)-1-piperazinyl]propyl]-5-methoxy-3,4-dihydro-2(1H)-quinolone or salt thereof” (Vela Pharmaceuticals, Inc., priority 2005, published 2007).

What was measured:
depressed patients = assay: Comparison of change in CSFQ score (difference from placebo) with bupropion XL and escitalopram, FIG. 1; assay type: in vivo, Humans; settings: overall and virtually every CSFQ subscale, bupropion XL data from Clayton et al.
Method: FIG. 1 depicts the difference in the Changes in Sexual Function Questionaire (CSFQ) scores (difference from placebo) from baseline to week 8 for OPC-14523, buproprion XL and escitalopram. The data for bupropion XL and escitalopram were obtained from Clayton et al., 45th Annual NCDEU Meeting, Session 1-21, Boca Raton, Fla., June 6-9, 2005. For the Clayton et al. data, N=273 (placebo), 276 (bupropion XL, 300-400 mg) and 281 (escitalopram, 10-20 mg).
There is evidence that bupropion reduces the sexual dysfunction in depressed patients, and may be useful as a treatment for sexual dysfunction. Therefore, the data of OPC-14523 effect on sexual dysfunction discussed above were compared to data on the effects of bupropion XL and escitalopram on sexual function reported by Clayton et al. (45th Annual NCDEU Meeting, Boca Raton, Fla. June 6-9, 2005).
The comparison was based on the change in CSFQ score from baseline to week 8. The changes were assessed by subtracting the placebo score from the treated score at baseline and at week 8, then taking the difference of these two numbers.

patients with MDD = assay: Efficacy on MDD, main indication of the clinical trial; assay type: in vivo, Humans; settings: main indication in the clinical trial; 5 mg BID, 8 weeks
Method: A double-blind, randomized, placebo-controlled, parallel-group study was performed to evaluate the efficacy, safety and tolerability of OPC-14523 in patients with MDD. The patients selected for participation in the trial had to meet DSM-IV-TR criteria for MDD (296.2x or 296.3x; diagnosis via MINI) and had had symptoms of depression for at least 2 months before the start of the double-blind treatment. Among other drugs prohibited during the study, patients were prohibited from taking drugs used to enhance sexual function, including, but not limited to, sildenafil, tadalafil and vardenafil, or taking psychopharmacologic drugs.

SMILES: COc1cccc2c1CCC(=O)N2CCCN1CCN(c2cccc(Cl)c2)CC1 [OPC-14523, 1-[3-[4-(3-chlorophenyl)-1-piperazinyl]propyl]-5-methoxy-3,4-dihydro-2(1H)-quinolone]
- change in CSFQ score from baseline to week 8 (difference from placebo), compared to bupropion XL (depressed patients): larger improvement
- effect on MDD (patients with MDD): did not demonstrate a statistically significant effect
